Measured values as given in publication PMC8584173, “The Cytotoxic Effect of Copper (II) Complexes with Halogenated 1,3-Disubstituted Arylthioureas on Cancer and Bacterial Cells” (International Journal of Molecular Sciences, 2021).

Tests used:
[1] = tested on: Glutathione S-transferase P (GSTP1_HUMAN); experiment: LC–MS proteome analysis, GSTP1; assay type: cell-based, Homo sapiens; conditions: IC50 concentration, % of control
Protocol: (§1) Enzymes involved in oxidoreductive potential were analyzed in the cell lysates obtained after treatment cells with selected conjugates for 24 h. Cells were washed with phosphate-buffered saline (PBS) and harvested, then centrifuged at 1000× g for 10 min. Then, lysis buffer (containing protease inhibitor, 1% RIPA Lysis and Extraction Buffer (ThermoFisher)) and cold PBS were added, and samples were sonicated three times in ice bath. Next, the cell lysates were centrifuged at 14,000× g at 4 °C for 15 min, and then supernatants were stored at […] before use. Protein concentration was measured by the Bradford method.
(§2) Normalized protein concentrations (5 µg) from cell lysate were precipitated by ice cold (–20 °C) acetonitrile (ACN, Merck, in ratio 1:4). Then, samples were centrifuged (–9 °C, 30 min., 18,000× g), the supernatant was discarded and ACN excess was evaporated using a vacuum centrifuge (5 min., room temp.). Protein pellet was dissolved in 40 mM ammonium bicarbonate. An amount of 500 mM dithiothreitol (DTT, with final concentration 20 mM) and 1 M iodoacetamide (IAA, with final concentration 40 mM) were used for reduction and alkylation processes. After 16 h of incubation in 37 °C with Trypsin Gold (Promega), digested protein samples were diluted with 0.1% formic acid (ThermoFisher) and centrifuged (+2 °C, 30 min, 18,000× g).
(§3) LC–MS analysis was carried out with the use of nanoUHPLC (nanoElute, Bruker) coupled by CaptiveSpray (Bruker) to ESI-Q-TOF mass spectrometer (Compact, Bruker). Two-column separation method was used, i.e., pre-column (300 µm × 5 mm, C18 PepMap 100, 5 µm, 100Å, Thermo Scientific) and Aurora separation column with CSI fitting (75 µm × 250 mm, C18 1.6 µm) in gradient 2% B to 35% B in 90 min with the 300 nL/min flow rate. Mobile phases (A) 0.1% formic acid in water and (B) 0.1% formic acid in ACN were used.
(§4) Sample ionizations were performed at a gas flow of 3.0 L/min, temperature of 150 °C and voltage of the capillary at 1600 V. The quadrupole energy was fixed to 5.0 eV and collision chamber energy 7.0 eV, with an ion transfer time of 90 µs. The ions were analyzed in the positive polarity mode in the range 150–2200 m/z, with the acquisition frequency of the 1 Hz spectrum, as well as with the autoMS/MS system.
(§5) The collected spectra were analyzed and calibrated using DataAnalysis software (Bruker) and then identified in ProteinScape (Bruker) by the MASCOT server. Protein identification was conducted using the online SwissProt and NCBIprot databases, and their references and biological significance were identified using Reactome.org, String.org and KEGG.

[2] = tested on: detoxifying and ROS-scavenging enzymes (GST, GR, SOD, PRDX); experiment: LC–MS proteome analysis, all 12 tested enzymes (text summaries); assay type: cell-based, human; conditions: PC3, IC50 concentration, span over enzymes
Protocol: as §1, §2
LC–MS analysis was carried out with the use of nanoUHPLC (nanoElute, Bruker) coupled by CaptiveSpray (Bruker) to ESI-Q-TOF mass spectrometer (Compact, Bruker). […]
as §4
The collected spectra were analyzed and calibrated using DataAnalysis software (Bruker) and then identified in ProteinScape (Bruker) by the MASCOT server. […]

interleukin-6 (IL-6) = experiment: IL-6 level assay (ELISA); assay type: cell-based, human; conditions: 72 h
Protocol: IL-6 concentration at all studied cancer cells and normal HaCaT cell lines was measured by ELISA kit (Diaclon SAS Besancon Cedex, France). […] IL-6 in cell culture supernatant was measured using enzyme-linked immunosorbent assay in accordance with the manufacturer’s protocol.

standard staphylococci = experiment: MIC, standard staphylococci; assay type: cell-based, Staphylococcus; conditions: standard staphylococci / S. aureus isolates
Protocol: The antimicrobial activity of the compounds was tested on Gram-positive bacteria (Staphylococcus aureus NCTC 4163, Staphylococcus aureus ATCC 25923, Staphylococcus aureus ATCC 6538, Staphylococcus aureus ATCC 29213, Staphylococcus epidermidis ATCC 12228, Staphylococcus epidermidis ATCC 35984), Gram-negative rods (Escherichia coli ATCC 10538, Escherichia coli ATCC 25922, Pseudomonas aeruginosa ATCC 15442, Pseudomonas aeruginosa ATCC 27863) and yeasts (Candida albicans ATCC 10231, Candida albicans ATCC 90028, Candida parapsilosis ATCC 22019). Hospital methicillin-resistant strains of Staphylococcus aureus and Staphylococcus epidermidis were obtained from the collection of the Department of Pharmaceutical Microbiology, Medical University of Warsaw, Poland.
Antifungal activities were assessed using Mueller–Hinton agar + 2% glucose and 0.5 µg/mL methylene blue dye medium. Sterile filter paper discs (9 mm diameter, Whatman Number 3 chromatography paper) were dripped with tested compound solutions (in dimethylsulfoxide, DMSO) to load 400 μg of a given compound per disc. Dry discs were placed on the surface of appropriate agar medium. The results (diameter of the growth inhibition zone) were read after 18 h of incubation at 35 °C. Minimal inhibitory concentration (MIC) was tested by the twofold serial microdilution method (in 96-well microtiter plates) using Mueller–Hinton broth medium (Beckton Dickinson) for bacteria or RPMI-1640 medium for Candida species, according to CLSI guidelines. The stock solution of tested agent was prepared in DMSO and diluted in sterile water. […] The final inoculum of all studied microorganisms was 10^5 CFU/ mL^−1 (colony forming units per ml). Minimal inhibitory concentrations (the lowest concentration of a tested agent that prevents visible growth of a microorganism) were read after 18 h (bacteria) or 24 h (yeasts) of incubation at 35 °C.

[3] = tested on: Peroxiredoxin-2 (PRDX2_HUMAN); experiment: LC–MS proteome analysis, PRDX2; assay type: cell-based, Homo sapiens; conditions: IC50 concentration, % of control
Protocol: as §1, §2, §3, §4, §5

SW620 cells = experiment: Annexin V-FITC/PI flow cytometry, SW620; assay type: cell-based, human; conditions: SW620, IC50 dose, 72 h
Protocol: The cells were cultured and harvested under the conditions described in the cell culture section. […] The effect of these compounds on the process of early and late apoptosis and necrosis was determined, as described previously, by dual staining with annexin V-FITC and propidium iodide according to manufacturer’s protocol (Becton Dickinson). The cells that were annexin V-FITC positive and PI-negative were identified as early apoptotic and annexin V-FITC and PI-positive as late apoptotic or necrotic.

[4] = tested on: Glutathione S-transferase A1 (GSTA1_HUMAN); experiment: LC–MS proteome analysis, GSTA1; assay type: cell-based, Homo sapiens; conditions: for Protein Intensity, % (GSTA1): IC50 concentration, % of control
Protocol: as §1, §2, §3, §4, §5

[5] = tested on: Thioredoxin-dependent peroxide reductase, mitochondrial (PRDX3_HUMAN); experiment: LC–MS proteome analysis, PRDX3; assay type: cell-based, Homo sapiens; conditions: IC50 concentration, % of control
Protocol: as §1, §2, §3, §4, §5

[6] = tested on: Peroxiredoxin-4 (PRDX4_HUMAN); experiment: LC–MS proteome analysis, PRDX4; assay type: cell-based, Homo sapiens; conditions: for Protein Intensity, % (PRDX4): IC50 concentration, % of control
Protocol: as §1, §2, §3, §4, §5

| SMILES | Protein Intensity, % (GSTP1) ([1]; PC3, 24 h) [%] | Protein Intensity, % (GSTP1) ([1]; SW480, 24 h) [%] | Protein Intensity, % (GSTP1) ([1]; SW620, 24 h) [%] | reduction of intensity of the 12 tested enzymes [2] | MIC (standard staphylococci) [µg/mL] | Protein Intensity, % (PRDX2) ([3]; PC3, 24 h) [%] | Protein Intensity, % (PRDX2) ([3]; SW480, 24 h) [%] | Protein Intensity, % (PRDX2) ([3]; SW620, 24 h) [%] | early apoptosis, % of cells (SW620 cells) | Protein Intensity, % (GSTA1) ([4]; PC3, 24 h) [%] | Protein Intensity, % (GSTA1) ([4]; SW480, 24 h) [%] | Protein Intensity, % (GSTA1) ([4]; SW620, 24 h) [%] | Protein Intensity, % (PRDX3) ([5]; PC3, 24 h) [%] | Protein Intensity, % (PRDX3) ([5]; SW480, 24 h) [%] | Protein Intensity, % (PRDX3) ([5]; SW620, 24 h) [%] | Protein Intensity, % (PRDX4) ([6]; PC3, 24 h) [%] | Protein Intensity, % (PRDX4) ([6]; SW480, 24 h) [%] | Protein Intensity, % (PRDX4) ([6]; SW620, 24 h) [%] | other results |
| --- | --- | --- | --- | --- | --- | --- | --- | --- | --- | --- | --- | --- | --- | --- | --- | --- | --- | --- | --- |
| O=[N+]([O-])c1cc([N+]2=C(Nc3ccc(I)cc3)[S][Cu-2]23[S]C(Nc2ccc(I)cc2)=[N+]3c2ccc(Cl)c([N+](=O)[O-])c2)ccc1Cl [Compound 8, Copper (II) complex with 1-(4-iodophenyl)-3-(4-chloro-3-nitrophenyl)thiourea] | 64.1 | 83.0 | 57.5 | 31.5–75.2% | 4 | 39.9 | 78.3 | 88.6 | approximately 20% | 73.5 | 91.6 | 54.3 | 24.8 | 96.3 | 95.2 | 30.8 | 78.2 | 93.9 | reduction of IL-6 secretion, times (interleukin-6 (IL-6); PC3, IC50 dose): almost twofold; reduction of IL-6 level, times (interleukin-6 (IL-6); SW480, IC50 dose, vs control): twofold; decrease in the amount of GSTA1 ([4]; SW620, IC50 concentration): 45.7% |
| O=[N+]([O-])c1cc([N+]2=C(Nc3ccc(F)c(Cl)c3)[S][Cu-2]23[S]C(Nc2ccc(F)c(Cl)c2)=[N+]3c2ccc(Cl)c([N+](=O)[O-])c2)ccc1Cl [Compound 4, Copper (II) complex with 1-(3-chloro-4-fluorophenyl)-3-(4-chloro-3-nitrophenyl)thiourea] |  |  |  |  | 4 |  |  |  |  |  |  |  |  |  |  |  |  |  |  |
| O=[N+]([O-])c1cc([N+]2=C(Nc3ccccc3F)[S][Cu-2]23[S]C(Nc2ccccc2F)=[N+]3c2ccc(Cl)c([N+](=O)[O-])c2)ccc1Cl [Compound 7, Copper (II) complex with 1-(2-fluorophenyl)-3-(4-chloro-3-nitrophenyl)thiourea] | 35.8 | 80.9 | 67.3 | 20.8-87.6% | 16 to 32 | 32.2 | 69.4 | 58.6 | 35.4% ± 2.8% | 79.2 | 75.6 | 36.4 | 12.4 | 90.4 | 61.2 | 35.7 | 58.3 | 73.0 | decrease of IL-6 level (interleukin-6 (IL-6); SW480, IC50 dose, vs control): ≤ 30%; reduction of PRDX4 intensity ([6]; SW480, IC50 concentration): 41.7% |
